{
  "source": "patent US20230172874A1",
  "about": "“USE OF CANNABIDIOL FOR THE TREATMENT OF INSOMNIA ASSOCIATED TO PAIN” (priority 2021, published 2023)",
  "key": {"neuropathic rats [1]": {"system": "neuropathic rats", "test": "EEG/EMG recording of wakefulness, NREM and REM sleep in neuropathic rats", "assay_type": "in vivo, male Wistar rats", "description": "Animals. The experiments were performed on male Wistar rats weighing 250 g (six weeks). All animals were housed in standardized animal facilities under a 12 h light/dark cycle (lights on at 7 AM) with ad libitum access to food and water. All surgeries and experimental procedures were performed during the light cycle. Experimental protocols were approved by the Animal Ethics Committee of the local institutional committee for animal use and care (McGill University, Qc, Canada). These protocols follow ethical guidelines for investigation of experimental pain in conscious animals of the IASP, the Canadian Institute of Health Research guidelines for animal care and scientific use.\nSpared nerve injury (SNI). SNI was performed according to the method of Decosterd and Woolf^35. Rats were deeply anaesthetized with isofluorane (5%), anaesthesia was confirmed by the absence of a nociceptive reflex reaction to a paw pinch. The sciatic nerve was exposed at mid-thigh level distal to the trifurcation and freed of connective tissue; the three peripheral branches (sural, common peroneal, and tibial nerves) of the sciatic nerve were exposed without stretching nerve structures. Both tibial and common peroneal nerves were ligated and transected together. Carprofen (5 mg/kg) was administrated subcutaneously pre-surgery as well as three days every 24 hours post-surgery as analgesic. After SNI, each rat was housed in its home cage for 15 days until the neuropathy is developed.\nEEG/EMG Implantation. Neuropathic rats (10 days after surgery) and naïve rats were placed in a stereotaxic frame following isoflurane-induced anesthesia (5%). Anaesthesia was confirmed by the absence of a nociceptive reflex reaction to a paw pinch. For EEG monitoring, three stainless-steel epidural electrodes were positioned through 1.5 mm burr holes: one over the parietal cortex on each side, and the third (as a reference) in the right prefrontal cortex. In rats, their respective locations relative to bregma were −2 mm anteroposterior (AP) and −3 mm lateral (L), −7 mm AP and −3 mm L, and −4.5 mm AP and +3 mm L, according to Paxinos and Watson. For EMG monitoring, three flexible stainless-steel wire electrodes, silicon insulation removed at the terminal 3-4 mm, were implanted into the neck muscles (two bilaterally and one in the middle). Wires were fused with the electrodes and the connectors were fixed to the skull with dental acrylic (Coltene/Whaledent). Carprofen (10mg/kg) was administrated subcutaneously pre-surgery as well as three days every 24 hours post-surgically as analgesic. Each rat was single-caged post-surgery and allowed to recover for the next 5 days^13. 24 hours after surgery, the rats were placed in the recording chamber and connected to a flexible 6-flat wire (3M Scotchflex™) in a freely moving manner for several hours during the subsequent 5 days. No recordings were performed, but tolerance to the cable and sleep behavior were observed. All rats from a home cage were also grouped for one hour each day for socialization to circumvent anxious-depressive-like behavior induced by social isolation^13.\nStudy design for EEG and EMG assessment. […] […] In another cohort of rats rimonabant (1 mg/kg) was also injected i.p. at 6 A.M. in neuropathic rats.\nEEG and EMG recording. Six days after surgery (16 days post-SNI), mechanical allodynia was assessed via von Frey test, and EEG/EMG was recorded for a period of 6 h (from 6 AM to 12 PM). The treatments (described below) were performed at 6:00 A.M., right after the recording had started. […] Consecutive 10 s epochs were subjected to a fast Fourier transform (FFT), and EEG power spectra density was computed in the frequency range of 0-64 Hz^13.\nAnalysis of EEG and EMG data. The three classical vigilance states as described in the rat were discriminated on the basis of the cortical EEG and neck EMG activities. […]"}, "neuropathic rats [2]": {"system": "neuropathic rats", "test": "Sleep fragmentation analysis (Sleep Fragmentation Index)", "assay_type": "in vivo, male Wistar rats", "settings": "NP rats; CBD 20 mg/kg i.p.; vs NP+VEH", "description": "Sleep fragmentation analysis. Sleep Fragmentation Index (SFI) is determinant of excessive daytime sleepiness as it is characterized by repetitive short interruptions of sleep by periods of wakefulness. […] In this study, SFI is calculated as the total number of wakefulness episodes in 24 h divided by the total sleep time in hours during 24 h (REM+NREM)."}, "[3]": {"settings": "6 h EEG/EMG, i.p., CBD 20 mg/kg, WAY 100635 2 mg/kg"}, "[4]": {"settings": "NP rats, 6 h EEG/EMG, i.p., CBD 20 mg/kg, rimonabant 1 mg/kg"}},
  "note": "Entries after “also recorded” stand apart in the source; their conditions may differ.",
  "data": [
    {"molecule": "C=C(C)[C@@H]1CCC(C)=C[C@H]1c1c(O)cc(CCCCC)cc1O", "note": "[CBD, 2-[(1R,6R)-3-methyl-6-prop-1-en-2-ylcyclohex-2-en-1-yl]-5-pentylbenzene-1,3-diol]", "values": [
      {"measurement": "total NREM sleep, relative to NP rats treated with vehicle", "setting": "neuropathic rats [1]; [3]", "value": "able to reverse NREM sleep impairments; also recorded: restored NREM sleep"},
      {"measurement": "total time of wakefulness, relative to NP rats treated with vehicle", "setting": "neuropathic rats [1]; [3]", "value": "decrease in the amount of time spent in wakefulness; also recorded: decreased wakefulness"},
      {"measurement": "REM sleep (total time), relative to NP rats treated with vehicle", "setting": "neuropathic rats [1]; 6 h EEG/EMG, i.p., CBD 20 mg/kg, WAY 100635 2 mg/kg, rimonabant 1 mg/kg", "value": "restored the normal REM sleep"},
      {"measurement": "NREM sleep, relative to naïve animals treated with vehicle", "setting": "neuropathic rats [1]; NP rats, 6 h EEG/EMG, CBD 20 mg/kg i.p.", "value": "no difference was detected"},
      {"measurement": "REM sleep, relative to naïve animals treated with vehicle", "setting": "neuropathic rats [1]; [4]", "value": "no difference was detected"},
      {"measurement": "wakefulness, relative to naïve animals treated with vehicle", "setting": "neuropathic rats [1]; [4]", "value": "no difference was detected"},
      {"measurement": "reversal of sleep perturbations induced by neuropathic pain (sleep-wake cycle)", "setting": "neuropathic rats [1]; NP rats, i.p., CBD 20 mg/kg, rimonabant 1 mg/kg", "value": "Reverses the Sleep Perturbations; also recorded: restored the normal sleep-wake cycle; also recorded: restores the impaired sleep in a dose-dependent manner"},
      {"measurement": "sleep fragmentation (sleep fragmentation index, SFI)", "setting": "neuropathic rats [2]", "value": "decrease of the sleep fragment index (SFI) to normal levels; also recorded: attenuates the sleep fragmentation"}
    ]}
  ]
}
